Values of other authors as cited in patent US20050121026A1, “Method for administration of tiotropium” (priority 2003, published 2005).

Conditions: bronchodilator, background statement

Q: Which “Duration of action (may be active for up to)” value does the source give for `C[N+]1(C)[C@@H]2C[C@@H](OC(=O)C(O)(c3cccs3)c3cccs3)C[C@H]1[C@@H]1O[C@@H]12` [tiotropium bromide] here?
A: Its value is “up to 24 hours”.
